Where two headings read alike, the source gives them in different places.
How the values were obtained:
human Nanog promoter = assay: Nanog-luc luciferase reporter assay (stably transfected CV1 cells); assay type: cell-based; settings: for Nanog-luc fold Induction / fold induction at 1 µM: compound at 1 μM, Nanog-luc cells, triplicates; for fold induction at 1 µM: Chlorocebus aethiops, CV-1
Experimental: Oct4, Sox2, and Nanog form a positive regulatory loop to regulate the expression of each other, and Nanog is considered a downstream target gene of Oct4 and Sox2 (37). Therefore, activation of Nanog promoter was used as a validation assay for the identified compounds. Specifically, the Oct4 promoter-activating compounds were tested to ascertain whether they activate a human
Nanog promoter-driven luciferase reporter gene using in triplicate luciferase reporter assays.
(§1) Then the promoter sequences were cloned into pGL4.4-luc-Hyg vector (Promega) to get Oct4-luc or Nanog-luc construct and the fidelity of the Oct4 and Nanog promoter DNA sequences was confirmed by bi-directional sequencing. CV 1 cells were transfected with the Oct4-luc or Nanog-luc constructs and the stably-transfected cells were selected by hygromycine resistance.
(§2) Luciferase Reporter Assays: The Oct4-luc or Nanog-luc cells were treated with compound OAC 1 or its structural analogs at 1 μM concentration or at indicated concentrations in triplicates. Other compounds used include 2 μM BIO, 2 μM BIX, 2 μM
(§3) AzaC, 25 μg/ml Vc, 10 nM Am580, 5 μM tranylcypromine, and 0.5 mM VPA. Luciferase reporter assays were performed as described (51) 24 hr after compound treatment or at indicated time points. For Topflash reporter assays, 0.2 μg β-catenin-responsive Topflash reporter gene plasmid was introduced into CV1 cells using trasfection (Bio-Rad). Compounds were added 6 hr after transfection. Luciferase activity was measured 48 hr after compound treatment using the Glo Luciferase Assay System (Promega).

human Oct4 promoter = assay: Oct4-luc luciferase reporter assay (stably transfected CV1 cells); assay type: cell-based; settings: for Oct4-luc Activity / Oct4-luc fold Induction / fold induction at 1 µM: compound at 1 μM, Oct4-luc cells, triplicates
Source text: A high-throughput screening scheme was designed to identify Oct4 promoter-activating compounds using a luciferase reporter under the control of the human Oct4 promoter (Oct4-luc). […] A stable cell line (Oct4-luc) that expresses luciferase reporter driven by the exogenous Oct4 promoter was established using hygromycin-resistance as a selection marker. These Oct4-luc cells were used for high-throughput screening of a chemical library of 80,000 compounds. The luciferase reporter activity was measured 24 hr after compound treatment. Solvent treatment was included as a negative control.
as §1
Compound Screening: The Oct4-luc cells were seeded at 1.75×10^4 cells per well density into 96-well plates. Compounds were added to cells one day after cell seeding at the concentration of 10 μM for 24 hr in the High-Throughput Screening core facility at City of Hope. Compounds that induced luciferase activity 3-fold or more were selected for further validation in both Oct4-luc and Nanog-luc cells.
as §2, §3

MEFs = settings: OSKM, cited from earlier work
[1] = Homo sapiens, CV-1, 24 h, read-out: Oct4-luc Activity
[2] = read-out: Oct4-luc fold Induction
[3] = seeding 5 × 10^4, day 25, reference (4) Lyssiotis 2009
[4] = seeding 7,500, day 30, reference (5) Ichida 2009
[5] = OAC1 1 μM, BIO 2 μM, BIX 2 μM, AzaC 2 μM, Vc 25 μg/ml, Am580 10 nM, tranylcypromine 5 μM, VPA 0.5 mM, two days

Nanog-luc fold Induction (human Nanog promoter) [fold] | Oct4-luc fold Induction (human Oct4 promoter) [fold] | SMILES | Oct4-luc Activity (human Oct4 promoter) | fold induction at 1 µM (human Nanog promoter) | fold induction at 1 µM (human Oct4 promoter; [1]) | fold induction at 1 µM (human Oct4 promoter; [2]) | also measured
1.1 | 1.1 | COc1ccc(C(=O)Nc2ccc3[nH]ncc3c2)cc1OC [Compound C29] | + (molecules that induce Oct4-luc less than 1.8-fold were indicated as “+”) |  |  |  | 
1.1 | 1.0 | CCOc1ccc(C(=O)Nc2ccc3[nH]ncc3c2)cc1OCC [Compound C30] | + (molecules that induce Oct4-luc less than 1.8-fold were indicated as “+”) |  |  |  | 
1.1 | 1.0 | O=C(Nc1ccc2[nH]nnc2c1)c1cccc(Cl)c1 [Compound C31] | + (molecules that induce Oct4-luc less than 1.8-fold were indicated as “+”) |  |  |  | 
1.2 | 1.3 | Cc1nc2cc(NC(=O)c3ccc([N+](=O)[O-])cc3)ccc2[nH]1 [Compound C32] | + (molecules that induce Oct4-luc less than 1.8-fold were indicated as “+”) |  |  |  | 
 |  | COc1cc(OC)c(C(=O)Nc2ccc3[nH]ncc3c2)cc1OC [Compound C33] |  | 1.1 | < 1.8 | 1 | 
 |  | COc1ccc(Cl)cc1C(=O)Nc1ccc2[nH]ncc2c1 [Compound C34] |  | 1.38 | < 1.8 | 1.23 | 
 |  | O=C(Nc1ccc2[nH]ncc2c1)c1cc(F)c(F)cc1Cl [Compound C35] |  | 1.24 | < 1.8 | 1.15 | 
 |  | O=C(Nc1ccc2[nH]ncc2c1)c1c(F)c(F)c(F)c(F)c1F [Compound C36] |  | 1.02 | < 1.8 | 1 | 
 |  | COc1cc(C(=O)Nc2ccc3[nH]nnc3c2)cc(OC)c1OC [Compound C37] |  | 1.08 | < 1.8 | 1.05 | 
 |  | CC(C)(C)OC(=O)Nc1ccc(C(=O)Nc2ccc3[nH]ncc3c2)cc1 [Compound C38] |  | 1.09 | < 1.8 | 1.2 | 
 |  | Nc1ccc(C(=O)Nc2ccc3[nH]ncc3c2)cc1 [Compound C39] |  | 1.55 | < 1.8 | 1.62 | 
 |  | CC(C)(C)OC(=O)NCc1ccc(C(=O)Nc2ccc3[nH]ncc3c2)cc1 [Compound C40] |  | 0.96 | < 1.8 | 0.97 | 
 |  | NCc1ccc(C(=O)Nc2ccc3[nH]ncc3c2)cc1 [Compound C41] |  | 1.06 | < 1.8 | 1.01 | 
 |  | O=C(CCCCC1SCC2NC(=O)NC21)NCc1ccc(C(=O)Nc2ccc3[nH]ncc3c2)cc1 (stereo not drawn) [Compound C42] |  | 0.97 | < 1.8 | 0.91 | 
 |  | O=C1Cc2c([nH]c3ccc(Br)cc23)-c2ccccc2N1 [Kenpaullone, kenpaullone] |  |  |  |  | Colony numbers (MEFs; [3]): 100; Reprogramming efficiency (MEFs; [3]): 0.2%
 |  | O=C(Nc1ccc2[nH]ccc2c1)c1ccc(F)cc1 [OAC3, 4-fluoro-N-(1H-indol-5-yl)benzamide] |  | 3.5 | ≥ 1.8 | 3.7 | 

Nanog-luc fold Induction (human Nanog promoter) [fold] | Oct4-luc fold Induction (human Oct4 promoter) [fold] | SMILES | Oct4-luc Activity (human Oct4 promoter) | fold induction at 1 µM (human Nanog promoter) | fold induction at 1 µM (human Oct4 promoter; [1]) | fold induction at 1 µM (human Oct4 promoter; [2]) | also measured
4.9 | 4.8 | COc1ccc(C(=O)Nc2ccc3[nH]ccc3c2)cc1 [OAC4] | ++ (Compounds that induce Oct4-luc 1.8-fold or more were classified as “++”) |  |  |  | 
2.4 | 2.9 | O=C(Nc1ccc2[nH]ccc2c1)c1ccc2nonc2c1 [OAC5] | ++ (Compounds that induce Oct4-luc 1.8-fold or more were classified as “++”) |  |  |  | 
2.9 | 3.2 | COc1ccc(C(=O)Nc2ccc3[nH]ncc3c2)cc1 [OAC6] | ++ (Compounds that induce Oct4-luc 1.8-fold or more were classified as “++”) |  |  |  | 
2.0 | 2.2 | O=C(Nc1ccc2[nH]ncc2c1)c1ccc(F)cc1 [OAC7] | ++ (Compounds that induce Oct4-luc 1.8-fold or more were classified as “++”) |  |  |  | 
1.8 | 1.9 | O=C(Nc1ccc2[nH]ncc2c1)c1ccccc1 [OAC8] | ++ (Compounds that induce Oct4-luc 1.8-fold or more were classified as “++”) |  |  |  | 
4.4 | 4.4 | CCOc1ccc(C(=O)Nc2ccc3[nH]ncc3c2)cc1 [OAC9] | ++ (Compounds that induce Oct4-luc 1.8-fold or more were classified as “++”) |  |  |  | 
4.4 | 4.5 | CCc1ccc(C(=O)Nc2ccc3[nH]ncc3c2)cc1 [OAC10] | ++ (Compounds that induce Oct4-luc 1.8-fold or more were classified as “++”) |  |  |  | 
3.9 | 3.8 | CC(C)c1ccc(C(=O)Nc2ccc3[nH]ncc3c2)cc1 [OAC11] | ++ (Compounds that induce Oct4-luc 1.8-fold or more were classified as “++”) |  |  |  | 
2.9 | 2.8 | Cc1ccc(C(=O)Nc2ccc3[nH]ncc3c2)cc1C [OAC13] | ++ (Compounds that induce Oct4-luc 1.8-fold or more were classified as “++”) |  |  |  | 
2.6 | 2.7 | CCOc1cccc(C(=O)Nc2ccc3[nH]ncc3c2)c1 [OAC14] | ++ (Compounds that induce Oct4-luc 1.8-fold or more were classified as “++”) |  |  |  | 
1.9 | 1.9 | COc1cccc(C(=O)Nc2ccc3[nH]ncc3c2)c1 [OAC15] | ++ (Compounds that induce Oct4-luc 1.8-fold or more were classified as “++”) |  |  |  | 
3.43 | 3 | COc1ccc(C(=O)Nc2ccc3[nH]c(C)cc3c2)cc1 [OAC16] | ++ (Compounds that induce Oct4-luc 1.8-fold or more were classified as “++”) |  |  |  | 
4.56 | 4.2 | CN(C)c1ccc(C(=O)Nc2ccc3[nH]ncc3c2)cc1 [OAC17] | ++ (Compounds that induce Oct4-luc 1.8-fold or more were classified as “++”) |  |  |  | 
4.5 | 4.49 | O=C(Nc1ccc2[nH]ncc2c1)c1ccc(Br)cc1 [OAC18] | ++ (Compounds that induce Oct4-luc 1.8-fold or more were classified as “++”) |  |  |  | 
 |  | Cc1cccc(-c2[nH]ncc2-c2ccc3ncccc3n2)n1 [RepSox2] |  |  |  |  | Colony numbers (MEFs; [4]): 7.5; Reprogramming efficiency (MEFs; [4]): 0.1%
 |  | O=C1O[C@H]([C@@H](O)CO)C(O)=C1O [Vc, Vitamin C, reference compound] |  |  |  |  | induction of Nanog-luc, comparison with known reprogramming enhancers (in words) (human Nanog promoter; [5]): no significant effect; induction of Oct4-luc, comparison with known reprogramming enhancers (in words) (human Oct4 promoter; [5]): no significant effect
